# Read-outs that look alike come from different tables or passages of the source.
# Columns and labels:
# human SARM1 SAM-TIR = human SARM1 SAM-TIR (Homo sapiens (Human), UniProt Q6SZW1); assay: biochemical; conditions: for ADPR Production (%) / NAD Consumption (%): single point screening at 150 μM
# Description: When these NRK1-expressing cells are supplemented with NR, NAD+ levels are augmented and cell viability is enhanced to enable efficient production and purification of the constitutively active human SARM1 SAM-TIR protein fragment. To express SARM1 SAM-TIR, the SARM1 N-terminal auto-inhibitory domain was deleted, keeping only the initiator Met. […] The fragment encoding the SARM1 SAM-TIR protein was cloned into the FCIV expression construct by standard methods to generate the FCIV-SST vector.
# NRK1-HEK293T cells were seeded onto 150 cm^2 plates at 20×10^6 cells per plate in 25 mL growth medium comprised of 90% DMEM (Gibco 11965-084) and 10% FBS (Sigma F0926). The next day, cells were transfected by first premixing 15 ug FCIV-SST SST (SAM-TIR expression plasmid from Washington University) with 45 ul X-tremeGENE 9 DNA Transfection Reagent (Roche product #06365787001) and 750 ul OptiMEM (Gibco 31985062) and then adding this mix directly to the cells. […] Forty-eight hours after transfection, cells were harvested, pelleted by centrifugation at 1,000 rpm (Eppendorf Centrifuge 5804R, 15 Amp Version), and washed once with cold PBS (0.01 M phosphate buffered saline NaCl 0.138 M; KCl 0.0027 M; pH 7.4). The cells were resuspended in 0.5 ml PBS with protease inhibitors (Complete protease inhibitor cocktail, Roche product #11873580001). Cell lysates were prepared by sonication (Misonix Microson Ultrasonic Cell Disruptor, output=3, 20 episodes of stroke). The lysates were centrifuged at 12,000×g for 10 min at 4° C. (Eppendorf Centrifuge 5415C) to remove cell debris and the aliquots of supernatant (containing SARM1 SAM-TIR protein) were stored at −80° C. for later use. Protein concentration was determined by the Bicinchoninic (BCA) method and used to normalize lysate concentrations.
# Reaction mixtures were prepared on ice by mixing 10 ul of SARM1 SAM-TIR cell lysate (320 fold dilution of lysate 11-3-2016, or 80 fold lysate dilution for assessment of time dependence) in PBS (pH 7.4) with 5 ul of compound stock. Compounds were first dissolved DMSO at 10 mM (final stock concentration). A 10 point compound dilution curve was prepared first with a 20 ul to 40 ul serial dilution in DMSO, followed by a 10 fold dilution (12 ul+108 ul) in PBS.
# SARM1 TIR = SARM1 TIR (Homo sapiens (Human), UniProt Q6SZW1); assay: SARM1 TIR-based assay (bacterially expressed, tagged SARM1 TIR fragment on beads); format: biochemical; conditions: for Substrate: substrate of SARM1 TIR NAD cleavage activity; for Inhibitor: inhibitor of SARM1 TIR NAD cleavage activity
# Sequence of SARM1 TIR (Q6SZW1 other isoform, or with tags, fused parts or gaps): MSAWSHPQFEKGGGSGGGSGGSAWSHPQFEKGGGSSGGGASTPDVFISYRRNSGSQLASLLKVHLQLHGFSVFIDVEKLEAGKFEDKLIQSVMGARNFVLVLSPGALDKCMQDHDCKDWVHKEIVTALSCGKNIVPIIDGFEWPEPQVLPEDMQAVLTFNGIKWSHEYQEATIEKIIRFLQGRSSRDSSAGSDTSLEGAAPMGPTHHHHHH
# Description: The present Example describes a SARM1 TIR-based Assay. This assay is similar to the assay described in Example 1, but allows for the identification and/or characterization of compounds that directly interact with the TIR domain, whereas the assay described in Example 1 can also identify compounds that disrupt SAM domain interactions. This assay makes use of the bacterial expression of a tagged version of the SARM1 TIR fragment that can be affinity purified. Displaying this artificial SARM1 TIR domain on a solid surface (i.e. affinity beads) generates an active NAD+ cleavage enzyme.
# The TIR domain of SARM1 was tagged with a tandem STREP-TAG® at the N-terminus, and a polyhistidine tag at the C-terminus, and was cloned into a pET30a+ plasmid. The construct was then transformed into SHuffle® T7 Express Competent E. coli (New England BioLabs, Ipswich, MA) and single colonies were grown overnight. The next day, cultures were diluted in LB media, grown at 30° C. until they reached A600=0.4-0.8, when IPTG (0.5 mM final concentration) was added. The bacteria were grown for an additional 4 h, pelleted by centrifugation, washed with PBS and stored at −80° C. For protein purification, the frozen bacterial pellet was thawed on ice, resuspended in binding buffer (without protease inhibitors) and incubated with 100 μg/mL lysozyme for 15 min on ice. Protease inhibitor cocktail was then added and the cells were lysed by sonication.
# The SARM1 TIR protein was first purified by Strep Tag affinity methods where bacterial lysates were incubated with […] (STREP-TACTIN®, IBA GmBH, Gottingen Germany) type 3 XT beads suspension (IBA Lifesciences) for 30 min. The beads were then washed three times with binding buffer, and bound proteins were eluted from MagStrep type 3 XT beads with 22.5 mM biotin for 25 min. Supernatant containing the eluted protein was separated from MagStrep beads, and incubated with 10 μL Co2+ DYNABEAD® (ThermoFisher Scientific, Waltham, MA) suspension for 30 min to bind SARM1-TIR proteins via the His tag. The beads were then washed at least two times with binding buffer and resuspended in 100 μL of binding buffer for NADase assay.
# Ten microliters of purified SARM1-TIR laden beads were incubated with 5 μM NAD+ in reaction buffer (92.4 mM NaCl and 0.64×PBS). Reactions were carried out at 25° C. for the indicated amount of time and stopped by addition of 1M of perchloric acid (HClO4) and placing the tube on ice. NAD+ metabolites were extracted using HClO4/K2CO3 method and quantified by HPLC (see metabolite measurement below). For LC-MS/MS analysis, the extraction was performed using 50% methanol in distilled water and chloroform (see LC-MS/MS metabolite measurement below). […] Select potent inhibitors (622608, 622689) identified from SARM1 SAM-TIR lysate screen were added to the reaction at 5 μM. NAD normalized to control at 0 min.
# Metabolites were isolated from enzyme reaction mixture by extracting with 1M HClO4, then neutralized with 3M K2CO3, and followed by separation by centrifugation. The supernatant (90 μL) containing the extracted metabolites was mixed with 0.5M Potassium Phosphate buffer (10 μL) and metabolites were analyzed by HPLC (Nexera X2) with KINETEX® (100×3 mm, 2.6 μm; PHENOMENEX®) column and metabolites are monitored with absorbance at 254 nm. Internal standards for NAD+, Nicotinamide (Nam), ADP Ribose (ADPR) were used to generate standard curves for quantification of the respective compounds. The levels for each compound in each experimental sample was normalized to the 0 min time point that was analyzed concurrently.
# These analogs were tested using an assay that makes use of a bacterially-expressed tagged version of the SARM1 TIR fragment, as described in Example 2. Displaying this artificial SARM1 TIR domain on a solid surface (i.e. affinity beads) generates an active NAD+ cleavage enzyme.
# SARM1 SAM-TIR lysate = SARM1 SAM-TIR lysate (Homo sapiens (Human), UniProt Q6SZW1); assay: HPLC-based SARM1 SAM-TIR NADase assay 1 (inhibitor screen, NAD+/ADPR ratio); format: biochemical
# Sequence of SARM1 SAM-TIR lysate (Q6SZW1 other isoform, or with tags, fused parts or gaps): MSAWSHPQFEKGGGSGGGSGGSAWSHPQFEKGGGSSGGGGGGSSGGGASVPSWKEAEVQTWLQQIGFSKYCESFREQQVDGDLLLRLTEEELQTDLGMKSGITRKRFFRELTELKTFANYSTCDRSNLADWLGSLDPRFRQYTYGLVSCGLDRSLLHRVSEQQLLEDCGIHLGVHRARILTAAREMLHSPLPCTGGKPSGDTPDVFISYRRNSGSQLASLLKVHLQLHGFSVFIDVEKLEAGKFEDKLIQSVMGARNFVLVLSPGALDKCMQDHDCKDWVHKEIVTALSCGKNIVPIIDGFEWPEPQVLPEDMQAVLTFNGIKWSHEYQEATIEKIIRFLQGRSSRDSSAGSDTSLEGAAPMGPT
# Protocol: NRK1-HEK293T cells were seeded onto 150 cm^2 plates at 20×10^6 cells per plate. The next day, the cells were transfected with 15 μg FCIV-SST (SAM-TIR expression plasmid, SEQ ID NO: 9) using X-[…]™ 9 DNA Transfection Reagent (Roche product #06365787001). The cultures were supplemented with 1 mM NR at time of transfection to minimize toxicity from SAM-TIR overexpression. Forty-eight hours after transfection, cells were harvested, pelleted by centrifugation at 1,000 rpm (Sorvall ST 16R centrifuge, Thermo Fisher), and washed once with cold PBS (0.01 M phosphate buffered saline NaCl 0.138 M; KCl 0.0027 M; pH 7.4). The cells were resuspended in PBS with protease inhibitors (cOmplete™ protease inhibitor cocktail, Roche product #11873580001) and cell lysates were prepared by sonication (Branson Sonifer 450, output=3, 20 episodes of stroke). […] Protein concentration was determined by the Bicinchoninic (BCA) method and used to normalize lysate concentrations. […]
# Reaction mixtures were prepared on ice by mixing SARM1 SAM-TIR cell lysate (0.14 μg total protein), compound stock (5 μM final concentration), and PBS (pH 7.4) to a final volume of 12 μl. […] The supernatant was transferred and analyzed by HPLC (Shimadzu Nexera X2) with KINETEX® (100×3 mm, 2.6 μm; PHENOMENEX®) column and metabolites were monitored with absorbance at 254 nm.
# To identify inhibitors of SARM1 NADase activity, the levels of NAD+ and the enzymatic cleavage product ADPR in the reactions were quantified by HPLC. From these values, the NAD+/ADPR ratio for each compound was calculated and the ratio used as a measure of NAD+ cleavage activity (Note: there is a small residual but detectable ADPR signal in control samples derived from the HEK293 lysate). […]
# The NAD+/ADPR ratio was used to determine the NAD+ cleavage activity of the SARM1 SAM-TIR lysate using the HPLC based assay 1. It will be appreciated that any precise, quantitative method of measuring NAD+ levels could be used for the detection of SARM1 NADase activity. […]
# [1] = 10 point curve 0.01-250 uM, read-out: IC50 (μM, ADPR Production)
# [2] = 10 point curve 0.01-250 uM, read-out: IC50 (μM, NAD Consumption)
# [3] = NAD consumption, 7 point curve 0-about 6 uM, read-out: IC50
structure (smiles),measurement,setting,value
"Cc1c(OCC(F)(F)F)ccnc1CS(=O)(=O)c1nc2ccccc2[nH]1 [I^A-10, lansoprazole sulfone]",ADPR Production (%),human SARM1 SAM-TIR,A (“A” indicating >75%)
same,NAD Consumption (%),human SARM1 SAM-TIR,A (“A” indicating >75%)
NC(=O)C1CCCc2c1[nH]c1ccc(Cl)cc21 (stereo not shown) [Ex-527],Substrate,SARM1 TIR,No
"Cc1c(OCC(F)(F)F)ccnc1C[S+]([O-])c1nc2ccccc2[nH]1 (stereo not shown) [I^A-2, lansoprazole]",IC50,human SARM1 SAM-TIR; [1],3.3 µM
same,IC50,human SARM1 SAM-TIR; [2],3.5 µM
"COc1ccc2c(c1)nc([S+]([O-])Cc1ncc(C)c(OC)c1C)n2C (stereo not shown) [I^A-11, N-methyl omeprazole]",ADPR Production (%),human SARM1 SAM-TIR,A (“A” indicating >75%)
same,NAD Consumption (%),human SARM1 SAM-TIR,A (“A” indicating >75%)
CN(C)c1nc(=Nc2cccc(Cl)c2)ss1 [Compound 622689],inhibition of NADase activity of purified SARM1 TIR,"SARM1 TIR; compound at 5 μM, 5 μM NAD+",inhibit NADase activity of purified SARM1 TIR
"COc1ccc2[nH]c([S+]([O-])Cc3ncc(C)c(OC)c3C)nc2n1 (stereo not shown) [I^A-8, tenatoprazole]",IC50,human SARM1 SAM-TIR; [1],8.7 µM
same,IC50,human SARM1 SAM-TIR; [2],7.4 µM
same,ADPR Production (%),human SARM1 SAM-TIR,C (“C” indicating <50%)
same,NAD Consumption (%),human SARM1 SAM-TIR,B (“B” indicating between 50%-75%)
same,identified as SARM1 NADase inhibitor in initial screening,SARM1 SAM-TIR lysate,SARM1 NADase inhibitors
"COc1ccc2[n-]c([S+]([O-])Cc3ncc(C)c(OC)c3C)nc2c1.[Na+] (stereo not shown) [I^A-13, sodium esomeprazole]",ADPR Production (%),human SARM1 SAM-TIR,B (“B” indicating between 50%-75%)
same,NAD Consumption (%),human SARM1 SAM-TIR,A (“A” indicating >75%)
NC(=O)c1ccc(N)nc1 [6-aminonicotinamide],Inhibitor,SARM1 TIR,No
same,Substrate,SARM1 TIR,No
CN(C)c1n/c(=N/c2cccc(Cl)c2)ss1 [I^B-1],IC50,human SARM1 SAM-TIR; [3],~0.7 µM
"NC(=O)c1ccc[n+]([C@@H]2O[C@H](COP(=O)([O-])OP(=O)(O)OC[C@H]3O[C@@H](n4cnc5c4ncn4ccnc54)[C@H](O)[C@@H]3O)[C@@H](O)[C@H]2O)c1 [Nicotinamide 1, N6-ethenoadenine dinucleotide]",Substrate,SARM1 TIR,No
NC(=S)c1cccnc1 [Thionicotinamide],Inhibitor,SARM1 TIR,No
same,Substrate,SARM1 TIR,No
NC(=O)c1ccc[n+](C2OC(COP(=O)(O)OP(=O)(O)OCC3OC(n4cnc5c(=O)[nH]cnc54)C(O)C3O)C(O)C2O)c1 (stereo not shown) [Nicotinamide Hypoxanthine dinucleotide],Inhibitor,SARM1 TIR,inhibitor and Yes
same,Substrate,SARM1 TIR,substrate and Yes
O=Cc1cccnc1 [Nicotinaldehyde],Inhibitor,SARM1 TIR,No
same,Substrate,SARM1 TIR,No
CC(=O)c1cccnc1 [3-acetylpyridine],Inhibitor,SARM1 TIR,No
same,Substrate,SARM1 TIR,No
"COCCCOc1ccnc(C[S+]([O-])c2nc3ccccc3[nH]2)c1C (stereo not shown) [I^A-6, rabeprazole]",IC50,human SARM1 SAM-TIR; [1],3.2 µM
same,IC50,human SARM1 SAM-TIR; [2],3.3 µM
same,inhibition at 10 µM,"SARM1 SAM-TIR lysate; at 10 μM, 5 μM NAD",95%
same,inhibition at 30 µM,"SARM1 SAM-TIR lysate; at 30 μM, 5 μM NAD",98.8%
"Cc1c(OCC(F)(F)F)ccnc1CSc1nc2ccccc2[nH]1 [I^A-9, lansoprazole sulfide]",ADPR Production (%),human SARM1 SAM-TIR,A (“A” indicating >75%)
same,NAD Consumption (%),human SARM1 SAM-TIR,A (“A” indicating >75%)
"NC(=O)C1=CN([C@@H]2O[C@H](COP(=O)(O)OP(=O)(O)OC[C@H]3O[C@@H](n4cnc5c(N)ncnc54)[C@H](OP(=O)(O)O)[C@@H]3O)[C@@H](O)[C@H]2O)C=CC1 [Nicotinamide adenine dinucleotide 2′-phosphate, reduced]",Inhibitor,SARM1 TIR,Unclear
CN(C)c1n/c(=N/Cc2ccco2)ss1 [I^B-2],IC50,human SARM1 SAM-TIR; [3],~0.15 µM
NC(=O)c1ccccc1 [Benzamide],Inhibitor,SARM1 TIR,No
same,Substrate,SARM1 TIR,No

# Source: patent US11903935B2, “Inhibitors of SARM1 NADase activity and uses thereof” (Washington University, priority 2016, dated 2024)
